Data taken from paper PMC8227285, “Functional Characterization of the Dopaminergic Psychostimulant Sydnocarb as an Allosteric Modulator of the Human Dopamine Transporter” (Biomedicines, 2021).
Like-named read-outs stand apart in the source and are kept apart here.

Legend:
[1] = biological target: T1, Y156F-DAT (Homo sapiens, UniProt Q01959, Y156F); details: cited from earlier work
T1 construct: expressed in transfected cells; host or cells: COS-7

[2] = biological target: T2, Y335A-DAT (Homo sapiens, UniProt Q01959, Y335A); details: cited from earlier work
T2 construct: expressed in transfected cells; host or cells: COS-7
T2 sequence (Q01959 whole entry Y335A): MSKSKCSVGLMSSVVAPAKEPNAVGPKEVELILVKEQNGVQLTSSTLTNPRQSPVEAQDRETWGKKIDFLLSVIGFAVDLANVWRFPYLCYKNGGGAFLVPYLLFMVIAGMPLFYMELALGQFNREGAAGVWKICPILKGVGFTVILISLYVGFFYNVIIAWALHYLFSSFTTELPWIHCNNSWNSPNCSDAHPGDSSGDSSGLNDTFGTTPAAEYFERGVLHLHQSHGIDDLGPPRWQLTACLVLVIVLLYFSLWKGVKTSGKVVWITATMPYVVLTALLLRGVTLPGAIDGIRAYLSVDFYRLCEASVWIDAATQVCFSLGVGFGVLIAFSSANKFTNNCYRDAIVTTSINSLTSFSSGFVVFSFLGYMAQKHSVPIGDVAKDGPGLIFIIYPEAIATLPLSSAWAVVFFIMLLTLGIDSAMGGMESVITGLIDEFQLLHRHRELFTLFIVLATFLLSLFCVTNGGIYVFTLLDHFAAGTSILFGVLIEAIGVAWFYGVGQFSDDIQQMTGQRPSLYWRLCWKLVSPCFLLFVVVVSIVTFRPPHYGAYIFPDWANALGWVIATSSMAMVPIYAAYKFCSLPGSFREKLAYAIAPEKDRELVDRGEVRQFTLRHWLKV

[3] = biological target: T3, DAT-XC/W84C mutant (Homo sapiens, UniProt Q01959, C306A/W84C); test: Substituted cysteine scanning (SCAM) MTSEA-biotin biotinylation in HEK-293 cells; format: cell-based
T3 construct: expressed in transfected cells; host or cells: HEK-293
T3 sequence (Q01959 1-620 W84C/C306A): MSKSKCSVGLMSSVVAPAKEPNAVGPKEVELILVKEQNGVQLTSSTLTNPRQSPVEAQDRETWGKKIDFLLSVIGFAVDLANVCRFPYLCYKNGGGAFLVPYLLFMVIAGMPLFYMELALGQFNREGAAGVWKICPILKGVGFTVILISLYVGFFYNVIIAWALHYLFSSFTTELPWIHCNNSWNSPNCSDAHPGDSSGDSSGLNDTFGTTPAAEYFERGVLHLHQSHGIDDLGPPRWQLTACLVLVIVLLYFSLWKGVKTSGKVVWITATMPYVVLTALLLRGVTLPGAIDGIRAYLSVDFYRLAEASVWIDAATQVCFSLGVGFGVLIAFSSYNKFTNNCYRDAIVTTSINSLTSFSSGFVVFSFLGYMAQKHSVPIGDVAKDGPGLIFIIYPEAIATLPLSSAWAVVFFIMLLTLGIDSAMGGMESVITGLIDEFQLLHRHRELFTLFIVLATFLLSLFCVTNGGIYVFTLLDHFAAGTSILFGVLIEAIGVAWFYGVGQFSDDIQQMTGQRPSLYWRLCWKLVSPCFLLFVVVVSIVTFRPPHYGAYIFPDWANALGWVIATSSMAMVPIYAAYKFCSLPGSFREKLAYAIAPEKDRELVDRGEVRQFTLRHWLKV
Procedure: Briefly, HEK-293 cells were transiently transfected and cultured to confluency in a 6-well plate. The cells were washed with ice-cold PBS-CM (pH 7.4) twice and incubated at 4 °C with vehicle or sydnocarb (0.5 or 2 μM) for 10 min, followed by the addition of MTSEA-biotin (125 μM, final concentration). After 10-min incubation at 4 °C, the biotinylation was quenched by aspirating the liquid and washing the cells with 1-mM DTT in PBS-CM, followed by a final wash with PBS-CM only. The cells were lysed in 600 μL of TNE lysis buffer (pH 7.4) containing protease inhibitors (100×) for 40 min at 4 °C. The cells were collected and centrifuged at 12,000× g for 10 min at 4 °C. The supernatant was collected, of which 30 μL was mixed with DTT (0.5 M, 5 μL) and LDS Nu-page (15 μL) for the total lysate sample, and saved at −20 °C. Four hundred and fifty microliters of the supernatant were incubated overnight at 4 °C with 50 μL of 50% slurry of high-capacity neutravidin agarose resin. The beads containing “biotinylated” proteins were washed with ice-cold TNE lysis three times, followed by a final wash with PBS-CM, and then mixed with LDL Nu-page (15 μL), DTT (0.5 M, 5 μL), and water (30 μL). […] Densities of he DAT bands were analyzed with an Odyssey imaging system and associated ImageStudio software (LI-COR, Lincoln, NE, USA).

[4] = biological target: T4, wild-type DAT (Homo sapiens, UniProt Q01959); test: [3H]-DA uptake kinetic assay in COS-7 cells (Michaelis-Menten); format: cell-based; details: vehicle 634.8 ± 84.62, four independent experiments
T4 construct: expressed in transfected cells; host or cells: COS-7
T4 sequence (Q01959 whole entry): as the sequence (Q01959 whole entry Y335A) above, with A335Y counted along it
Procedure: Transport assays were performed as described previously. Briefly, COS-7 cells were transfected and plated in 96-well plates. Uptake experiments were performed 2 days after transfection. The media was removed, and the cells were washed with PBS (137-mM NaCl, 2.7-mM KCl, 4.3-mM Na2HPO4, and 1.4-mM KH2PO4, pH 7.4) containing 0.1-mM CaCl2, 1-mM MgCl2, […], and […] (PBSCM). Following washing, a constant concentration of radiolabeled substrate (50-nM [^3H]-DA) and increasing concentrations of unlabeled substrate (0.05–100-μM DA) were added, and the uptake was allowed to continue for 10 min at room temperature. The uptake was terminated by washing twice with PBS-CM. The cells were solubilized in scintillation cocktail and counted on a microplate scintillation and luminescence counter (PerkinElmer, Waltham, MA, USA). Background was obtained from non-transfected cells and subtracted. Data were fitted to a Michaelis−Menten equation using nonlinear regression to obtain Km and Vmax.

[5] = biological target: T5, hDAT (Homo sapiens, UniProt Q01959); test: [3H]-dopamine transport inhibition assay in transiently transfected COS-7 cells; format: cell-based; details: for IC50: mean ± SEM
T5 construct: expressed in transfected cells; host or cells: COS-7
T5 sequence (Q01959 whole entry): as the sequence (Q01959 whole entry Y335A) above, with A335Y counted along it
Procedure: (§1) Transiently transfected COS-7 cells (expressing hDAT, hNET, or hSERT) were plated in 96-well plates. Uptake experiments were performed 2 days later. The media was removed, and the cells were washed with PBS-CM. Following washing, the cells were incubated for 10 min with various concentrations of sydnocarb, and the uptake was initiated by adding [^3H]-dopamine to a final concentration of 25 nM. The uptake was allowed to continue for 10 min at room temperature and was terminated by washing twice with PBS-CM. The cells were solubilized in a scintillation cocktail and counted on a microplate scintillation and luminescence counter (PerkinElmer, Waltham, MA, USA). Data were fitted to a Hill equation by a nonlinear regression analysis to obtain the IC50 values.

[6] = biological target: T1, Y156F-DAT; test: DA uptake inhibition assay in COS-7 cells expressing DAT mutant; format: cell-based
Procedure: as §1

[7] = biological target: T2, Y335A-DAT; test: as above; format: cell-based
Procedure: as §1

[8] = biological target: T6, hNET (Homo sapiens, UniProt P23975); test: Radioactive neurotransmitter transport inhibition assay in transiently transfected COS-7 cells; format: cell-based; details: hNET transiently transfected COS-7 cells; mean ± SEM, three independent experiments (Figure 1A)
T6 construct: expressed in transfected cells; host or cells: COS-7
T6 sequence (P23975 whole entry): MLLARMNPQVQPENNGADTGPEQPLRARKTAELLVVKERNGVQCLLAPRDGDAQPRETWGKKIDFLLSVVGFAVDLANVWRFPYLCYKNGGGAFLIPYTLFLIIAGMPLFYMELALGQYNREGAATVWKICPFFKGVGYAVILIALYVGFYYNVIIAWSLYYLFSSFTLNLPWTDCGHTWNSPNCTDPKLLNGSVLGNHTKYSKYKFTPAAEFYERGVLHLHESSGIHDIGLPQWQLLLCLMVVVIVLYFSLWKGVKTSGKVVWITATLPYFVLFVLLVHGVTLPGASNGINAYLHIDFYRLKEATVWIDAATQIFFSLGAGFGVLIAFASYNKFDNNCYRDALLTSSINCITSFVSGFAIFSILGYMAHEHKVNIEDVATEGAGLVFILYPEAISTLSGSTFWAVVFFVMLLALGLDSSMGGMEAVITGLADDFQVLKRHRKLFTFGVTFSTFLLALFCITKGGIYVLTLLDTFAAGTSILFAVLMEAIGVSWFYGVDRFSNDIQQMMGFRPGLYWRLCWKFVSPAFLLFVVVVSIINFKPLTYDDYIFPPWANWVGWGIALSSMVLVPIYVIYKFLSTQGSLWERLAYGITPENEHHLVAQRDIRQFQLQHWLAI
Procedure: as §1

[9] = biological target: T7, hSERT (Homo sapiens, UniProt P31645); test: as above; format: cell-based; details: hSERT transiently transfected COS-7 cells, mean ± SEM, three independent experiments (Figure 1A)
T7 construct: expressed in transfected cells; host or cells: COS-7
T7 sequence (P31645 whole entry): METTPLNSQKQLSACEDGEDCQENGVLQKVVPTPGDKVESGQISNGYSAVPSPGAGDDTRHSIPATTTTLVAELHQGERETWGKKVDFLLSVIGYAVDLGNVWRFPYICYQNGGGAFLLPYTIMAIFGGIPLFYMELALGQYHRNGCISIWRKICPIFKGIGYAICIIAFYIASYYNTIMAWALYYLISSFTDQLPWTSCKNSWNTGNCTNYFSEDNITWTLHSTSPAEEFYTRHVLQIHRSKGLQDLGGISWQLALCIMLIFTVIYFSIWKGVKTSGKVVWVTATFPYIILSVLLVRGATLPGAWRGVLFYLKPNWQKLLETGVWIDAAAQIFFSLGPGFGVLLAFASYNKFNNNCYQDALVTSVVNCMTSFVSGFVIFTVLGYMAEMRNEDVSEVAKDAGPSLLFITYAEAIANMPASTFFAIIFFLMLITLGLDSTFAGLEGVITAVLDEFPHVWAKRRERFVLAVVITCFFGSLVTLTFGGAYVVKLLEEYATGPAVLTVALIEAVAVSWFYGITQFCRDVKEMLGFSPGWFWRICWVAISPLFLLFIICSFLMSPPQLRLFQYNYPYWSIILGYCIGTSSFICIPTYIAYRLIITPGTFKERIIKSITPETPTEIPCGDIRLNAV
Procedure: as §1

T1 sequence (Q01959 whole entry Y156F): as the sequence (Q01959 whole entry Y335A) above, with Y156F, A335Y counted along it

CCCCN1[C@@H]2CC[C@H]1CC(OC(c1ccc(F)cc1)c1ccc(F)cc1)C2 (stereo partly shown) [JHW-007]
effect of Y156F mutation on potency [1]: significantly reduced

COC(=O)[C@H]1[C@@H](OC(=O)c2ccccc2)C[C@@H]2CC[C@H]1N2C [cocaine]
effect of Y335A mutation on potency [2]: markedly impaired
effect of Y156F mutation on binding affinities [1]: unaffected
labeling of W84C with MTSEA-biotin ([3]; coincubation with 100 µM cocaine (negative control)): not affected

CC(Cc1ccccc1)[n+]1cc([N-]C(=O)Nc2ccccc2)on1 (stereo not shown) [sydnocarb]
Vmax of DAT-mediated [3H]-DA uptake ([4]; in the presence of 0.5 µM Sydnocarb): 455.6 ± 89.6 femtomole/min/well
Vmax of DAT-mediated [3H]-DA uptake ([4]; in the presence of 2.0 µM Sydnocarb): 195 ± 80.7 femtomole/min/well
IC50 ([5]; WT-DAT-transfected COS-7 cells, mutant comparison (Figure 6), three independent experiments, read-out: IC50, DA uptake inhibition): 439 ± 135 nM
fold more potent towards hDAT than towards hNET ([5]; from dose-response IC50 values): 70 fold
fold more potent towards hDAT than towards hSERT ([5]; from dose-response IC50 values): 1000 fold
IC50 ([5]; hDAT transiently transfected COS-7 cells, three independent experiments (Figure 1A), listed as Sydnocarb, read-out: IC50, transport inhibition): 493 ± 140 nM
IC50 ([5]; hDAT transiently transfected COS-7 cells, three independent experiments (Figure 1A), read-out: IC50, transport inhibition): 490 ± 140 nM
change in potency, Y156F-DAT versus WT-DAT ([6]; COS-7 cells): no significant changes
IC50 ([6]; Y156F-DAT-transfected COS-7 cells, mean ± SEM, three independent experiments): 262 ± 118 nM
reduction of potency for Y335A-DAT compared with WT-DAT ([7]; COS-7 cells): 3.5 fold
IC50 ([7]; Y335A-DAT-transfected COS-7 cells, mean ± SEM, three independent experiments): 1420 ± 201 nM
IC50 [8]: 34900 ± 14100 nM
IC50 [9]: 495000 ± 17000 nM
IC50 ([9]; listed as Sydnocarb): 495000 ± 17000 nM
biotinylation of W84C by MTSEA-biotin ([3]; coincubation with 1 µM sydnocarb, four independent experiments): significantly decreased
